According to patent US8409619B2, “Oral drug delivery system for azole, moxifloxacin and rifampicin” (priority 2008, dated 2013):
Read-outs that look alike come from different tables or passages of the source.

Legend:
[1] = test system: M. tuberculosis H37Rv; test: Experimental infection and chemotherapy (murine tuberculosis, cfu in lungs and spleen); format: in vivo; conditions: for Log10 cfu Lung / Log10 cfu Spleen: mice infected i.v. with M. tuberculosis H37Rv, eight weeks oral chemotherapy, sacrificed day 62, mean ± S.D.; for reduction of bacterial burden in organs / cfu reduction from lungs and spleen as compared to untreated controls: mice, eight weeks of chemotherapy; for cfu reduction from lungs and spleen as compared to untreated controls: free form daily/twice daily or encapsulated form weekly
[2] = not given; remark: listed apart in the source

SMILES | time up to which drug was detected in organs (mouse, in vivo, po) | Log10 cfu Lung [1] | Log10 cfu Spleen [1] | reduction of bacterial burden in organs [1] | cfu reduction from lungs and spleen as compared to untreated controls [1] | time up to which drug was detectable in plasma ([2]; mouse, in vivo, po) | time up to which drug was detected in organs (oral free drug, mice) | time up to which drug was detectable in plasma ([2]; oral free drug, mice)
Clc1ccc(COC(Cn2ccnc2)c2ccc(Cl)cc2Cl)cc1 (stereo not drawn) [Free econazole, econazole] | up to 12 h | 4.87 ± 0.040 Log10 cfu | 4.89 ± 0.020 Log10 cfu | about 2 log cfu | approximately 2 Log10 cfu | 3 to 4 h |  | 
COc1c(N2C[C@@H]3CCCN[C@@H]3C2)c(F)cc2c(=O)c(C(=O)O)cn(C3CC3)c12 [Free moxifloxacin, moxifloxacin] |  | 4.96 ± 0.013 Log10 cfu | 4.96 ± 0.013 Log10 cfu | about 2 log cfu | approximately 2 Log10 cfu |  | ≤ 24 h | up to 12 h
